The record followed here is US20260248812A1, “METHODS OF TREATING CONGENITAL ADRENAL HYPERPLASIA” (Spruce Biosciences, Inc., priority 2019, published 2026).

The test system of one data set is adults with classic CAH. Put plainly: Phase 2 clinical study of Compound 3 with glucocorticoid: time matched change of serial hormone profiles (ACTH, 17-OHP, A4). The class given is in vivo, human. The following applies: non-dexamethasone subjects; for A4 level profile, time matched change from baseline: 6 am to 8 am. The procedure: Study Compound 3, a Phase 2, open-label, first-in-CAH-patients, proof-of-concept, dose ranging study, evaluated the safety and efficacy of repeated doses of SPR001 in adults with classic CAH. The population (n=24; with 2 subjects completing 2 cohorts) consisted of subjects with classic CAH that is not adequately controlled despite a stable glucocorticoid regimen based on the assessment of a single hormone at study screening, 17-OHP>800 ng/dl, which is 4 times the upper limit of a normal reference range of 17-OHP level. 17-OHP was chosen as the hormone as an inclusion criterion, as at the time, it represented the state-of-art in CAH for assessment of disease severity and adequacy of glucocorticoid therapy. The study comprised 3 cohorts, Cohort A was a 6-week intra-subject dose escalation treatment period with three 2-week treatment periods of 200 mg […] (QD) (only daily), 600 mg QD and 1000 mg QD without washout between treatment periods. Cohorts B and C consisted of 2-week treatment periods of either 100 bis in die (BID) (twice daily) (Cohort C) or 200 mg BID (Cohort B). At baseline, the following hormones were assessed, 17-OHP, ACTH and A4. The same hormones were assessed at the end of each 2-week treatment period.
A clinical study is conducted involving up to 52 weeks treatment of Compound 3 with concurrent daily glucocorticoid therapy for the treatment of adults with classic CAH. After screening using A4 and ACTH level criteria, eligible patients are enrolled into up to 12 weeks of placebo-controlled treatment followed by 40 weeks of open label treatment and a 4-week washout/safety follow-up period.
(§1) As part of the study, pre and pose concentrations of DEX and cortisol were measured. In some embodiments, the biomarker reduction analysis comprises all subjects.
(§2) A pooled baseline (dotted) and 2 lines (solid) representing two dose groups (doses=200 mg and doses >200 mg) using the percentage change from dose group baseline presented as percentage change from the pooled baseline. The figures are divided by disease control group, poor disease control with highly elevated ACTH and A4 and the good disease control group with ACTH and A4 that is near normal or below normal ranges. Each group has elevated 17-OHP.
as §2, with “In both groups, 17-OHP is elevated above its target (1200 ng/dL). The Y-axis is different with the poor disease control” for “Each”, “exceeding 8000 ng/dL in FIG. 3A and the good disease group was near an upper bound of approximately 3000 ng/dL in FIG. 3B.” for “has elevated 17-OHP.”

The next data set has as its target CYP3A4 pathway (Homo sapiens, UniProt P08684). Put plainly: CYP3A4 pathway inhibition (statement). The class given is in vitro ADME. The following applies: dexamethasone is primarily metabolized through the CYP3A4 pathway. The procedure: as §1

Structures are written as SMILES.

Sequence of CYP3A4 pathway (P08684 whole entry): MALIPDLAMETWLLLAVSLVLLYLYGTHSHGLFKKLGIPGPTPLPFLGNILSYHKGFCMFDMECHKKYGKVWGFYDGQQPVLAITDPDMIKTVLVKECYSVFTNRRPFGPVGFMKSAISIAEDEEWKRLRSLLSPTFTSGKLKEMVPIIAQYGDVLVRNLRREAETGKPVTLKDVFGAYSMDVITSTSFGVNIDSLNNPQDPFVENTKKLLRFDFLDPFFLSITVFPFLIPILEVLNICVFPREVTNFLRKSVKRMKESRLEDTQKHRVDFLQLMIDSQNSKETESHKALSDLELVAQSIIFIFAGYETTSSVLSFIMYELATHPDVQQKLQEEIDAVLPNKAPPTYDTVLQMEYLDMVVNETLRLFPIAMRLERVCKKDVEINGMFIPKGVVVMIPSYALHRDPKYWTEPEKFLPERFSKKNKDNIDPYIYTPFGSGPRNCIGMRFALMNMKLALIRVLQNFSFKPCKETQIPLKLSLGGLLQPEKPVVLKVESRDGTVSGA

On to `CCC(CC)c1cc(C)nc2c(-c3sc(N4CCOCC4)nc3Cl)c(C)nn12` [Compound 3, 4-(4-chloro-5-(2,5-dimethyl-7-(pentan-3-yl)pyrazolo[1,5-a]pyrimidin-3-yl)thiazol-2-yl)morpholine], for which the “17-OHP level, serial hormone profile, time matched change from baseline” value in the data set with adults with classic CAH (both poor and good disease control groups, 10 pm to 8 am, FIGS. 3A and 3B) is reported as “reduced the magnitude of the increase in 17-OHP post 3 am”. For the same molecule, the “ACTH level, serial hormone profile, time matched change from baseline” value in the data set on adults with classic CAH (good disease control group (ACTH and A4 near or below normal), 10 pm to 8 am, FIG. 2B) is reported as “generally maintained the serial profile below the ULN”; with adults with classic CAH (poor disease control group (highly elevated ACTH and A4), 10 pm to 8 am, doses =200 mg and >200 mg, FIG. 2A), “reduced the magnitude of the increase in ACTH post 3 am”. The “A4 level profile, time matched change from baseline” value in the data set with adults with classic CAH (good disease control group, FIG. 4B) was “further reduce A4 level compared to the baseline level”; in the data set on adults with classic CAH (poor disease control group, blended gender based ULN approximately 212 ng/dL, FIG. 4A), “improves the A4 profile in subjects toward the blended gender based ULN”. The “inhibition of the CYP3A4 pathway” value on CYP3A4 pathway is listed as “inhibitor of the CYP3A4 pathway”.
